Experimental data taken from ChEMBL document CHEMBL4038308, “Lipophosphonoxins II: Design, Synthesis, and Properties of Novel Broad Spectrum Antibacterial Agents” (J Med Chem, 2017).
Converted amounts (≈) assume the structure as drawn. The source made the active and inactive calls. No cut-off for these calls is given here.

Legend:
[1] = Critical micellar concentration of the compound by capillary electrophoresis method
Bacillus subtilis = experiment: Antibacterial activity against Bacillus subtilis after 24 hrs by microdilution method; format: functional
[2] = test system: Staphylococcus epidermidis; experiment: Antibacterial activity against Staphylococcus epidermidis 8700/B after 24 hrs by microdilution method; format: functional
[3] = test system: Stenotrophomonas maltophilia; experiment: Antibacterial activity against Stenotrophomonas maltophilia S2-23 after 24 hrs by microdilution method; format: functional; conditions: S2-23, 24 h
Escherichia coli = experiment: Bactericidal activity against Escherichia coli CCM 3954 assessed as reduction in bacterial count at 6.25 to 25 mg/L after 45 mins by time kill assay; format: functional
Staphylococcus aureus [4] = experiment: Bactericidal activity against Staphylococcus aureus CCM 4223 assessed as reduction in bacterial count at 6.25 mg/L after 6 to 24 hrs by time kill assay; format: functional
Staphylococcus aureus [5] = experiment: Bactericidal activity against Staphylococcus aureus CCM 4223 assessed as reduction in bacterial count at 25 mg/L after 5 hrs by time kill assay; format: functional
TERT-RPE1 [6] = experiment: Cytotoxicity against human RPE1 cells assessed as disruption of cell membrane integrity after 4 hrs by CytoTox-ONE-based assay; conditions: tert-rpe1, 4 h
[7] = Apparent permeability across apical to basolateral side in human Caco2 cells at 200 uM after 3 hrs by LC-MS analysis; format: ADME, cell-based; conditions: caco-2, 3 h
[8] = Chemical stability of compound at 50 to 500 mg/L at pH 0.18 after 24 hrs at room temperature by LC-MS analysis; format: physicochemical; conditions: buffer, pH 0.18, 24 h
[9] = Chemical stability of compound at 50 to 500 mg/L at pH 5 after 24 hrs at room temperature by LC-MS analysis; format: physicochemical; conditions: buffer, pH 5, 24 h
[10] = Chemical stability of compound at 50 to 500 mg/L at pH 8.8 after 24 hrs at room temperature by LC-MS analysis; format: physicochemical; conditions: buffer, pH 8.8, 24 h
Mus musculus = experiment: Toxicity in ICR mouse assessed as body weight loss up to 2000 mg/kg, po administered as single dose measured for 2 weeks; format: organism-based; conditions: in vivo, 336 h
TERT-RPE1 [11] = experiment: Cytotoxicity against human RPE1 cells assessed as disruption of cell membrane integrity at >80 mg/L after 4 hrs by CytoTox-ONE-based assay; conditions: tert-rpe1, 4 h
[12] = Chemical stability of compound at 50 to 500 mg/L at pH 5 after 24 hrs at 37 degC by LC-MS analysis; format: physicochemical; conditions: buffer, pH 5, 24 h

Molecule `CCCCCCCCCCCCCCOP(=O)(CCN(CCCN)CCCN)OC[C@H]1O[C@@H](n2ccc(=O)[nH]c2=O)[C@H](O)[C@@H]1O` (stereo not given in full) has a CMC [1] of 4.55 mM, an MIC (Bacillus subtilis) of 0.78 µg/mL (≈ 1.18 µM) and an MIC [2] of 1.56 µg/mL (≈ 2.36 µM). For the same molecule, the MIC [3] was 12.5 µg/mL (≈ 18.9 µM), the Activity (Escherichia coli) was “Active” and the Activity (Staphylococcus aureus [4]) was “Active”. The Activity (Staphylococcus aureus [5]) was “Active”, the Activity (TERT-RPE1 [6]) was “Non-Toxic” and the permeability [7] was “Impermeable”. The Stability [8] was “Stable”, the Stability [9] was “Stable” and the Stability [10] was “Stable”. For the same molecule, the Activity (Mus musculus) was “Non-Toxic”, the Activity (TERT-RPE1 [11]) was “Non-Toxic” and the Stability [12] was “Stable”.
